Measurements as given in patent US11484513B2, “Salbutamol-containing ophthalmic medicament” (priority 2016, dated 2022).

What was measured:
[1] = tested on: Myopia; experiment: Clinical observation in myopia patients; format: in vivo, human; conditions: 12 myopia patients, eye drops
Protocol: (§1) The invention will be illustrated further by the description of clinical examples, which of course are not limiting in nature. The medicament was administrated orally, topically in the form of eye drops or by intraocular injection especially intravitreal injection, unless indicated differently.
(§2) According to particular embodiments where topical administration using eye drops is carried out, the dosages, posologies, administration regimen of the administered active principles are as described in the particular embodiments disclosed in the detailed description, i.e., Salbutamol is administered topically in a concentration of 0.1% (w/v), and/or Ramiprilate is administered topically in a concentration of 2% (w/v), and/or eplerenone is administered topically in a concentration of 1% (w/v), and/or N Acetyl DL Leucine is administered topically in a concentration of 1% (w/v), the active principle(s) being administered once or twice or three times, and up to four times a day, during 1, 2 or 3 months, or more, unless specified differently.
This invention relates to the manufacture of an eye protective medicament, namely Salbutamol via general route or topical route (eye drops) for improving vision.
12 patients were evaluated and received salbutamol in the form of eye drops.
Results: in the addition to the improvement of their visual acuity, the refractive value was reduced. […]

[2] = tested on: Astigmatism; experiment: Clinical observation in astigmatism subjects; format: in vivo, human
Excerpt: The invention will be illustrated further by the description of clinical examples, which of course are not limiting in nature. The medicament was administrated orally, topically in the form of eye drops or by intraocular injection especially intravitreal injection, unless indicated differently. This invention relates to the manufacture of an eye protective medicament, namely Salbutamol via general route or topical route (eye drops) for improving vision. More particularly, but not exclusively, it relates to eye drops comprising Salbutamol, which are intended for improving (i.e., in the present case decreasing the effects of presbyopia, myopia, hypermetropia and astigmatism) and for stabilizing them or even reversing their evolutive course thereof. The astigmatism subjects noticed an improvement of their refraction and visual acuity.

[3] = tested on: Age related physiological vision decline; experiment: Clinical observation in age related physiological vision decline; format: in vivo, human; conditions: many cases, absence of any ocular pathology
Excerpt: as §1

[4] = tested on: Vitreo macular traction; experiment: Clinical observation in vitreo macular traction / proliferative diabetic retinopathy (vitreolysis); format: in vivo, human
Excerpt: as §1
In many cases of proliferative diabetic retinopathy including fibrovascular proliferation, retinal detachment, vitreo macular traction, the intravitreal injection of Salbutamol led to induction of posterior vitreous detachment, easier peeling and removal of epiretinal fibrotic membrane and internal limiting membrane particularly in macular hole pathology.

[5] = tested on: Stargardt's disease; experiment: Clinical observation in Stargardt's disease patients; format: in vivo, human; conditions: 8 patients
Excerpt: as §1
8 patients treated with Salbutamol noticed an improvement of their visual acuity.
If we associate to Salbutamol one or more of these: N Acetyl DL Leucine, nitric monoxide donor (vitamin C, vitamin B9), Ramiprilat, and aldosterone receptor antagonist; improvement is noted.

[6] = tested on: Vitreous hemorrhage; experiment: Clinical observation in vitreous hemorrhage; format: in vivo, human; conditions: many cases
Excerpt: as §1

[7] = tested on: Keratoconus; experiment: Clinical observation in keratoconus patients; format: in vivo, human; conditions: 02 keratoconus patients
Excerpt: as §1, with “differently. 02 patients received Salbutamol, they noticed an improvement of visual acuity and a reduced irregular astigmatism.” for “differently.”

[8] = tested on: Age related macular degeneration; experiment: Clinical observation in age related macular degeneration patients (visual acuity, OCT, fluoro-angiography); format: in vivo, human
Protocol: as §1, §2
The structural information provided by O.C.T is becoming a valuable diagnostic adjunct to fluorescein angiography. OCT is a valuable tool for probing the effect of these treatments.
15 patients were treated with salbutamol or salbutamol associated with one or more of these: aldosterone receptor antagonist, ACEI (angiotensin converting enzyme inhibitor), N Acetyl DL Leucine, magnesium and serrapeptase (Eye drops; tablets; intra ocular injection).
Patient three presented with a history of decreased vision in the right eye. […] Prior to receiving Salbutamol treatment an OCT scan was taken, which is shown in (FIG. 06).
Then we prescribe topically Salbutamol eye drops 0.1% (w/v), Ramiprilat eye drops 2% (W/v), Eplerenone eye drops 1% (w/v). N Acetyl DL Leucine eye drops 1% (w/v) association three times a day.
Patient two presented with a six months history of decreased vision in the right eye.
They were treated with Salbutamol eye drops 0.1% (w/v). Three months later visual acuity improved.

[9] = tested on: Cataract; experiment: Clinical observation in cataract; format: in vivo, human; conditions: under salbutamol
Excerpt: as §1

[10] = tested on: Periretinal fibrosis; experiment: Clinical observation in periretinal fibrosis; conditions: human, in vivo
Excerpt: as §1
13) Periretinal fibrosis: is reduced after Salbutamol treatment.

[11] = tested on: Allergic conjunctivitis and blepharitis; experiment: Clinical observation in allergic conjunctivitis and blepharitis patients; format: in vivo, human; conditions: 5 patients, eye drops
Excerpt: as §1

[12] = tested on: Glaucoma; experiment: Clinical observation in glaucoma patients; format: in vivo, human; conditions: patients with known glaucoma, pooled (Salbutamol alone or associated)
Protocol: as §1
Patients with known glaucoma experienced a decrease in their ocular tension, and an improvement of their visual acuity and visual field once they are treated with Salbutamol or salbutamol associated with one or more of these: N Acetyl DL Leucine, glucose, magnesium, aldosterone receptor antagonist (eplerenone), angiotensin converting enzyme inhibitor (Ramiprilat), β1 blocker and anhydrase carbonic inhibitor.

[13] = tested on: Presbyopia; experiment: Clinical observation in presbyopia patients; format: in vivo, human; conditions: 08 patients, eye drops
Protocol: as §1, §2
08 patients received Salbutamol in the form of eye drops and experimented an improvement of their near vision and a decrease in presbyopia. […] Salbutamol has proven to be an effective treatment of presbyopia.

[14] = tested on: Uveitis; experiment: Clinical observation in uveitis cases (visual acuity, OCT); format: in vivo, human; conditions: 10 cases of uveitis pooled (salbutamol alone or associated)
Protocol: as §1, §2
In 10 cases of uveitis; salbutamol alone or associated with one or more of these: non-steroidal anti inflammatory drugs, angiotensin converting enzyme inhibitors, aldosterone receptors antagonist, β1 blocker, anhydrase carbonic inhibitor, magnesium, corticosteroids and serrapeptase reduced inflammatory disorders. […]

[15] = tested on: Diabetic retinopathy; experiment: Clinical observation in diabetic retinopathy patients (visual acuity, OCT); format: in vivo, human
Protocol: as §1, §2
Currently, one examination technique is very useful in evaluating diabetic; that's optical coherence tomography (O.C.T).
OCT is very sensitive in evaluating diabetic macular oedema, central macular thickness correlates with visual acuity.
The response of macular oedema to the administration of one drug such as Salbutamol or a medicament associating Salbutamol, angiotensin converting enzyme inhibitor, antagonist of aldosterone receptor and N Acetyl DL Leucine can be documented accurately by O.C.T imaging.
Diabetic patients were treated with these medicaments given topically,
The following study was undertaken on several patients having non-proliferative diabetic; retinopathy or proliferative diabetic retinopathy.
20 patients were treated with either Salbutamol or salbutamol associated with one or more of these: ACEI (angiotensin converting enzyme inhibitor), aldosterone receptor antagonist, N Acetyl DL Leucine, magnesium and serrapeptase (eye drops; tablets; intra ocular injection especially intra vitreal injection). […]

[16] = tested on: Dry eye; experiment: Clinical observation in dry eye patients; format: in vivo, human; conditions: 7 patients, eye drops
Excerpt: as §1

[17] = tested on: Corneal oedema; experiment: Clinical observation in corneal oedema patients; format: in vivo, human; conditions: 10 patients
Excerpt: as §1

[18] = tested on: Pigmentosa retinitis; experiment: Clinical observation in pigmentosa retinitis patients; format: in vivo, human
Excerpt: as §1

[19] = 15 patients pooled (salbutamol alone or associated), eye drops, tablets, intra ocular injection
[20] = patient two, right eye, Salbutamol eye drops 0.1% (w/v), three months later
[21] = 20 patients pooled (Salbutamol alone or associated), eye drops, tablets, intra ocular injection

**Q.** What does the source list for `CC(C)(C)NCC(O)c1ccc(O)c(CO)c1` (stereo not shown) [Salbutamol]?
**A.** refractive value [1]: reduced; visual acuity [1]: improvement; refraction [2]: improvement; visual acuity [2]: improvement; visual function [3]: improved; effect on the retina ([4]; during vitreolysis): without adversely affecting the retina; proteolytic activity ([4]; human, in vivo): seems to have a proteolytic activity; vitreolysis ([4]; human, in vivo): promotes a vitreolysis inducing both synchesis and synerisis; posterior vitreous detachment ([4]; intravitreal injection, many cases of proliferative diabetic retinopathy incl. vitreo macular traction): induction; peeling and removal of epiretinal fibrotic membrane and internal limiting membrane ([4]; intravitreal injection, many cases of proliferative diabetic retinopathy, particularly macular hole pathology): easier; visual acuity [5]: improvement; vitreous hemorrhage [6]: decreased; irregular astigmatism [7]: reduced; visual acuity [7]: improvement; O.C.T [8, 19]: improvement; visual acuity [8, 19]: improvement; macular thickening ([8]; eye drops given topically instead of intraocular anti VEGF injection): regression; successive OCT controls ([8]; patient three, first round of treatment (Salbutamol)): more improvement but no complete recovery; macular thickening ([8]; patient three, right eye, occult CNV, three months after Salbutamol treatment): incomplete regression; macular thickening (OCT) [8, 20]: incomplete regression; visual acuity [8, 20]: improved; improvement of cataract [9]: Some improvement; periretinal fibrosis [10]: reduced; allergic conjunctivitis and blepharitis [11]: improved; ocular tension [12]: decrease; visual acuity [12]: improvement; visual field [12]: improvement; near vision [13]: improvement; need to wear a correction of the near vision [13]: Some of them did not need any longer; presbyopia [13]: decrease; inflammatory disorders [14]: reduced; retinopathy [15, 21]: improves; visual acuity [15, 21]: improves; total macular volume (OCT) ([15]; patient one, eye drops 0.1% (w/v), two months after treatment): decreased; dry eye [16]: improved; oedema [17]: decreased; vision [17]: improve; visual acuity ([18]; 9 patients, all of them): improvement; visual field ([18]; 9 patients, all of them): improvement; visual function ([18]; pigmentosa retinitis): improvement
